Test [1] relates to rabbit platelet aggregation by PAF. Description: Inhibitory activity on rabbit platelet aggregation by PAF. The following applies: Oryctolagus cuniculus, PAF 1×10^-8 M, read-out: rate of inhibition of rabbit platelet aggregation by PAF; for inhibition at 30 µM: test drug 3 × 10^-5 M; for inhibition at 3 µM: test drug 3 × 10^-6 M; for inhibition at 0.3 µM: test drug 3 × 10^-7 M; for inhibition at 0.03 µM: test drug 3 × 10^-8 M. It is filed as cell-based.

The test system of another test is PAF-induced hypotension. The test can be described thus: Inhibitory activity against PAF-induced hypotension in rats. It is filed as in vivo, rat (male Spraque-Dawley). The following applies: PAF 0.3 μg/kg i.v. As to the method:
Inhibitory activity against PAF-induced hypotension in rats
Male Spraque-Dawley rats, with a body weight of about 400 g, were used under pentobarbital sodium (50 mg/kg, intravenous administration) anesthesia. A cannula was inserted into the femoral artery and secured in position for measurement of blood pressure and another cannula into the femoral vein for administration of a solution of the drug. The blood pressure was measured via a pressure transducer and recorded on a polygraph. First, 0.3 μg/kg of PAF was administered intravenously and the hypotensive response was recorded.
The inhibitory activity against PAF-induced hypotension was estimated from the rate of PAF-induced hypotensive response (Δ mmHg) after the drug administration to hypotensive response (Δ mmHg) by PAF before the drug administration.

One may read the inhibition as how much of the control response was suppressed.

For the compound `CCCCCCCCCCCCCCCCCCOCC(Cn1ccc(=O)n(CC[N+](C)(C)C)c1=O)OC(C)=O` (stereo not drawn) [Example 102, 1-(2-Acetyloxy-3-octadecyloxy)propyl-3-(2-trimethylammonioethyl)urasil chloride], in test [1] (test drug 1 × 10^-6 M), the inhibition at 1 µM was 72%. Besides, in test [1], the inhibition at 30 µM is 100% and the inhibition at 3 µM was found to be 100%.
Regarding `CCCCCCCCCCCCCCCCCCOCC(COC(=O)N(CC[N+](C)(C)C)C(C)=O)NC(C)=O` (stereo not drawn) [Example 20, 1-Octadecyloxy-2-acetamido-3-[N-acetyl-N-(2'-trimethylammonioethyl)]carbamoyloxypropane iodide], in test [1], the inhibition at 30 µM amounted to 100% and the inhibition at 3 µM was found to be 100%.
In the case of `CCCCCCCCCCCCCCCCCCNC(=O)OCC(Cn1ccc(=O)n(CC[N+](C)(C)C)c1=O)OC` (stereo not drawn) [Example 136, N-[2-{1-(3-Octadecylcarbamoyloxy-2-methoxypropyl)uracil-3-yl}ethyl]-N,N,N-trimethylammonium chloride], in test [1], the inhibition at 30 µM amounted to 100%, the inhibition at 3 µM stood at 100% and the inhibition at 0.3 µM came to 11%.
`CCCCCCCCCCCCCCCCCCNC(=O)OCC(COC(=O)N(Cc1csc[n+]1CC)C(C)=O)OC.[I-]` (stereo not drawn) [Example 149, 4-[N-Acetyl-N-(3-octadecylcarbamoyloxy-2-methoxypropoxycarbonyl)amino]methyl-3-ethylthiazolium iodide]: in test [1], the inhibition at 3 µM is 100%. The inhibition at 0.3 µM in test [1] is 100%. In addition, the inhibition at 0.03 µM in test [1] turned out to be 78%. The Restoration rate was determined as 100% in the test with PAF-induced hypotension (0.1 mg/kg i.v., after 5 min); 39% in the test on PAF-induced hypotension (0.1 mg/kg i.v., after 60 min); 100% with PAF-induced hypotension (1 mg/kg i.v., after 5 min); 100% in the test on PAF-induced hypotension (1 mg/kg i.v., after 60 min).
Regarding `CCCCCCCCCCCCCCCCCCNC(=O)OCC(COC(=O)N(C(C)=O)C1CCC[N+](C)(CC)C1)OC` (stereo not drawn) [Example 161, 3-[N-Acetyl-N-(3-octadecylcarbamoyloxy-2-methoxypropoxycarbonyl)]amino-1-ethyl-1-methylpiperidinium chloride], in test [1], the inhibition at 30 µM came to 100%, the inhibition at 3 µM came out at 100% and the inhibition at 0.3 µM came out at 6%.
In the case of `CCCCCCCCCCCCCCCCCCNC(=O)OCC(COC(=O)N(CC[N+](C)(C)C)C(=O)N(C)C)OC` (stereo not drawn) [Example 62, 1-O-[N-Dimethylcarbamoyl-N-(2'-trimethylammonioethyl)]carbamoyl-2-O-methyl-3-O-octadecylcarbamoylglycerol iodide], in test [1], the inhibition at 30 µM amounted to 100% and the inhibition at 3 µM came to 34%.
On the same counts, the results for `CCCCCCCCCCCCCCCCCCNC(=O)OCC(COC(=O)NCC[n+]1ccsc1)OC` (stereo not drawn) [Example 14, 2-O-Methyl-1-O-octadecylcarbamoyl-3-O-(2'-thiazolioethyl)carbamoylglycerol bromide] are 100% and 52%.
Turning to `CCCCCCCCCCCCCCCCCCOCC(COC(=O)NCC[N+](C)(C)C)NC(C)=O` (stereo not drawn) [Example 19, 1-Octadecyloxy-2-acetamido-3-(2'-trimethylammonioethyl)carbamoyloxypropane iodide], the inhibition at 30 µM in test [1] turned out to be 72%.
For the compound `CCCCCCCCCCCCCCCCCCNC(=O)OCC(COC(=O)N(Cc1scc[n+]1CCCC)C(C)=O)OC` (stereo not drawn) [Example 145, 2-[N-Acetyl-N-(3-octadecylcarbamoyloxy-2-methoxypropoxycarbonyl)amino]methyl-3-butylthiazolium iodide], in test [1], the inhibition at 3 µM came out at 100% and the inhibition at 0.3 µM came to 100%.
`CCCCCCCCCCCCCCCCCCNC(=O)OCC(COC(=O)NCC[N+](C)(C)C)OC` (stereo not drawn) [Example 10, 2-O-Methyl-1-O-octadecylcarbamoyl-3-O-(2'-trimethylammonioethyl)carbamoylglycerol iodide]: the inhibition at 30 µM in test [1] was 82%.
Same read-out and setting: the same measure for `CCCCCCCCCCCCCCCCCCOCC(COC(=O)NCC[n+]1ccsc1)OCc1ccccc1` (stereo not drawn) [Example 8, 2-O-Benzyl-1-O-octadecyl-3-O-(2'-thiazolioethyl)carbamoylglycerol bromide]: 100%.
Turning to `CCCCCCCCCCCCCCCCCCNC(=O)OCC(COC(=O)NCc1scc[n+]1C)OC` (stereo not drawn) [Example 140, 2-[N-(3-Octadecylcarbamoyloxy-2-methoxypropoxycarbonyl)amino]methyl-3-methylthiazolium iodide], in test [1], the inhibition at 30 µM was 100%, the inhibition at 3 µM stood at 100%, the inhibition at 0.3 µM came to 100% and the inhibition at 0.03 µM was 18%.
For `CCCCCCCCCCCCCCCCCCNC(=O)OCC(COC(=O)N(Cc1cccc[n+]1C)C(C)=O)OCC` (stereo not drawn) [Example 116], in test [1], the inhibition at 30 µM is 100%, the inhibition at 3 µM was determined as 100% and the inhibition at 0.3 µM worked out at 100%. The same compound had a Restoration rate in the test with PAF-induced hypotension (1 mg/kg i.v., after 5 min) of 100%. Further, the Restoration rate in the test with PAF-induced hypotension (1 mg/kg i.v., after 60 min) was found to be 77%.
Take `CCCCCCCCCCCCCCCCCCNC(=O)OCC(COC(=O)N(Cc1csc[n+]1C)C(C)=O)OC` (stereo not drawn) [Example 148, 4-[N-Acetyl-N-(3-octadecylcarbamoyloxy-2-methoxypropoxycarbonyl)amino]methyl-3-methylthiazolium iodide]: in test [1], the inhibition at 3 µM is 100% and the inhibition at 0.3 µM turned out to be 42%.
For `CCCCCCCCCCCCCCCCCCNC(=O)OCC(COC(=O)N(Cc1cccc[n+]1CC)C(C)=O)OCC` (stereo not drawn) [Example 117], in test [1], the inhibition at 3 µM was 100% and the inhibition at 0.3 µM was determined as 100%. Also, in the test with PAF-induced hypotension (1 mg/kg i.v., after 5 min), the Restoration rate was found to be 100%. In the test on PAF-induced hypotension (1 mg/kg i.v., after 60 min), this compound gave a Restoration rate of 100%.
Take `CCCCCCCCCCCCCCCCCCNC(=O)OCC(COC(=O)N(Cc1scc[n+]1CCC)C(C)=O)OC` (stereo not drawn) [Example 144, 2-[N-Acetyl-N-(3-octadecylcarbamoyloxy-2-methoxypropoxycarbonyl)amino]methyl-3-propylthiazolium iodide]: in test [1], the inhibition at 3 µM was determined as 100%, the inhibition at 0.3 µM was found to be 100% and the inhibition at 0.03 µM turned out to be 9%.
For `CCCCCCCCCCCCCCCCCCNC(=O)OCC(COC(=O)N(Cc1cccc[n+]1CCC)C(C)=O)OC` (stereo not drawn) [Example 173, 3-[N-Acetyl-N-(N'-propylpyridinio-2-yl)methyl]carbamoyl-1-octadecylcarbamoyl-2-methylglycerol chloride], in test [1], the inhibition at 30 µM is 100%, the inhibition at 3 µM came to 100% and the inhibition at 0.3 µM was found to be 100%.
Turning to `CCCCCCCCCCCCCCCCCCNC(=O)OCC(COC(=O)N(CC[N+](C)(C)C)C(=O)OC)OC` (stereo not drawn) [Example 56, 2-O-Methyl-1-O-[N-methoxycarbonyl-N-(2'-trimethylammonioethyl)]carbamoyl-3-O-octadecylcarbamoylglycerol iodide], in test [1], the inhibition at 30 µM was 100% and the inhibition at 3 µM came out at 64%.
Take `CCCCCCCCCCCCCCCCCCNC(=O)OCC(COC(=O)N(Cc1scc[n+]1CC)C(C)=O)OC.[I-]` (stereo not drawn) [Example 143, 2-[N-Acetyl-N-(3-octadecylcarbamoyloxy-2-methoxypropoxycarbonyl)amino]methyl-3-ethylthiazolium iodide]: in test [1], the inhibition at 3 µM turned out to be 100% and the inhibition at 0.3 µM was 100%. The Restoration rate in the test with PAF-induced hypotension (1 mg/kg i.v., after 5 min) is on record as 100%. In the test on PAF-induced hypotension (1 mg/kg i.v., after 60 min), this compound returned a Restoration rate of 100%.
On to `CCCCCCCCCCCCCCCCCCNC(=O)OCC(COC(=O)N(Cc1scc[n+]1C)C(C)=O)OC.[I-]` (stereo not drawn) [Example 142, 2-[N-Acetyl-N-(3-octadecylcarbamoyloxy-2-methoxypropoxycarbonyl)amino]methyl-3-methylthiazolium iodide], for which, in test [1], the inhibition at 30 µM was 100%, the inhibition at 3 µM is 100%, the inhibition at 0.3 µM was determined as 100% and the inhibition at 0.03 µM is 25%. Moreover, the Restoration rate with PAF-induced hypotension (1 mg/kg i.v., after 5 min) worked out at 100%. Also, the Restoration rate in the test with PAF-induced hypotension (1 mg/kg i.v., after 60 min) is on record as 100%.
On to `C=CC[n+]1ccccc1CN(C(C)=O)C(=O)OCC(COC(=O)NCCCCCCCCCCCCCCCCCC)OC` (stereo not drawn) [Example 174, 3-[N-Acetyl-N-(N'-allylpyridinio-2-yl)methyl]carbamoyl-1-octadecylcarbamoyl-2-methylglycerol chloride], for which, in test [1], the inhibition at 30 µM was found to be 100%, the inhibition at 3 µM was found to be 100% and the inhibition at 0.3 µM turned out to be 100%.
In the case of `CCCCCCCCCCCCCCCCCCNC(=O)OCC(CN1CC(=O)N(CC[n+]2ccsc2)C1=O)OC` (stereo not drawn) [Example 110, 1-[(2-methoxy-3-octadecylcarbamoyloxy)propyl]-3-(2-thiazolioethyl)hydantoinchloride], in test [1], the inhibition at 30 µM was found to be 100%, the inhibition at 3 µM came to 100% and the inhibition at 0.3 µM turned out to be 34%.

These data come from US4737518A, “Lipid derivatives, their production and use” (Takeda Chemical Industries, Ltd., priority 1984, dated 1988).
